From patent US10028992B2, “Methods of treating muscular dystrophy” (BOARD OF REGENTS OF THE NEVADA SYSTEM OF HIGHER EDUCATION …, priority 2012, dated 2018)
Read-outs that look alike come from different tables or passages of the source.

Tested on: α7 integrin promoter
Test: muscle cell-based assay: α7βgal+/− myoblasts/myotubes, LacZ reporter, β-galactosidase cleavage of FDG
Set-up: species or system mouse
In short: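 Primary α7βgal+/− mouse myoblasts (LacZ knocked into α7 integrin exon 1, promoter retained), differentiated; promoter activity read as β-galactosidase conversion of non-fluorescent FDG to fluorescein. Hits followed by dose-response, western analysis and myostatin counterscreen.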

Row | SMILES | Results in a α7+/− β-galactosidase assay, Myotubes, 0.5 uM | Results in a α7+/− β-galactosidase assay, Myotubes, 1 uM | Results in a α7+/− β-galactosidase assay, Myotubes, 5 uM | Results in a α7+/− β-galactosidase assay, Myotubes, 10 uM | Results in a α7+/− β-galactosidase assay, Myotubes, 20 uM | Results in a α7+/− β-galactosidase assay, Myotubes, 40 uM | Results in a α7+/− β-galactosidase assay, Myotubes, 0.5 uM (Myotubes, compound at 0.5 uM) | Results in a α7+/− β-galactosidase assay, Myotubes, 1 uM (Myotubes, compound at 1 uM) | Results in a α7+/− β-galactosidase assay, Myotubes, 5 uM (Myotubes, compound at 5 uM) | Results in a α7+/− β-galactosidase assay, Myotubes, 10 uM (Myotubes, compound at 10 uM) | Results in a α7+/− β-galactosidase assay, Myotubes, 20 uM (Myotubes, compound at 20 uM) | Results in a α7+/− β-galactosidase assay, Myotubes, 40 uM (Myotubes, compound at 40 uM)
1 | O=C(Cn1nc(-c2ccc(Cl)cc2)ccc1=O)N1CCC2(CC1)OCCO2 [drawing 395] | 0.1803 | 0.1627 | −0.1502 | −0.1782 | −0.08792 | −0.2213 | – | – | – | – | – | –
2 | CCOC(=O)C1(Cc2cccc(Cl)c2)CCCN(C(=O)CCSC)C1 (stereo not drawn) [drawing 396] | – | – | – | – | – | – | −0.05788 | 0.02732 | −0.3174 | −0.211 | −0.1814 | −0.4242
3 | Cc1cccc2c(/N=N/c3ccc(S(=O)(=O)Nc4ccc(Cl)cc4)cc3[N+](=O)[O-])c(O)[nH]c12 [drawing 397] | – | – | – | – | – | – | −0.03979 | −0.05535 | −0.02922 | 0.02994 | −0.2047 | −0.2727
4 | CC(C)c1ccc(OC(=O)c2cccc(S(=O)(=O)N3CCN(C)CC3)c2)cc1 [drawing 398] | – | – | – | – | – | – | −0.02436 | 0.01638 | −0.2473 | 0.3054 | −0.1863 | −0.2246
5 | CC(C)c1ccc(NC(=O)CN2C(=O)c3ccccc3S2(=O)=O)cc1 [drawing 399] | – | – | – | – | – | – | −0.1815 | −0.0433 | 0.02954 | −0.2491 | −0.1353 | −0.1392
6 | NC(=O)c1sc2nc3c(cc2c1N)CCC3 [drawing 400] | – | – | – | – | – | – | −0.1099 | −0.1307 | −0.1528 | 0.5381 | 0.07998 | 0.08496
7 | O=C(Nc1ccccc1OC(=O)c1ccc(Cl)cc1)c1ccc(Cl)cc1 [drawing 401] | – | – | – | – | – | – | −0.03464 | 0.02857 | −0.09525 | −0.1056 | −0.1495 | −0.3841
8 | CC(NC(=O)c1ccc(C(C)(C)C)cc1)C(c1cccs1)N1CCOCC1 (stereo not drawn) [drawing 402] | – | – | – | – | – | – | 0.08612 | 0.07635 | 0.06551 | 0.1287 | −0.144 | −0.1386
9 | CCC(=O)c1ccc(OCC(O)CN2CCOC(C)C2)cc1.O=C(O)C(=O)O (stereo not drawn) [drawing 403] | – | – | – | – | – | – | 0.08149 | 0.03201 | −0.09666 | −0.1187 | 0.08332 | 0.1461
10 | CC1CCN(C(CNS(=O)(=O)c2ccccc2)c2ccccc2)CC1 (stereo not drawn) [drawing 404] | – | – | – | – | – | – | 0.1307 | 0.1946 | −0.1201 | −0.1176 | −0.1296 | −0.1429
11 | COC(=O)c1ccc(/N=N/c2ccccc2)cc1 [drawing 405] | – | – | – | – | – | – | −0.111 | 0.1978 | −0.1462 | −0.2093 | −0.1861 | −0.2357
12 | CN(CCC1CCCCO1)C(=O)CCc1nnc(CCCCc2ccccc2)o1 (stereo not drawn) [drawing 407] | – | – | – | – | – | – | 0.03419 | 0.03033 | −0.2337 | −0.1125 | −0.1283 | −0.1202
13 | c1ccc(-c2nn[nH]n2)nc1 [drawing 408] | – | – | – | – | – | – | −0.05084 | −0.03177 | −0.024 | −0.07161 | 0.03157 | 0.04635
14 | O=C(N/N=C/c1c[nH]c2ccccc12)c1cc(Cl)ccc1O [drawing 409] | – | – | – | – | – | – | −0.05672 | −0.09286 | 0.2441 | −0.1364 | 0.01214 | −0.2587
15 | O=C(O)C(Cc1ccc(O)cc1)N1C(=O)c2ccccc2C1=O (stereo not drawn) [drawing 411] | – | – | – | – | – | – | 0.0905 | 0.1588 | 0.2927 | −0.09211 | 0.2266 | 0.06733
16 | CCN(CC)C(=O)c1sc2nc(-c3ccc(OC)cc3)cn2c1C [drawing 412] | – | – | – | – | – | – | 0.08584 | 0.05066 | 0.1198 | −0.03387 | −0.01472 | −0.1357
17 | Cc1ccsc1-c1nnc(S)n1C1CCCCC1 [drawing 413] | – | – | – | – | – | – | 0.2221 | 0.09759 | 0.1567 | −0.1231 | 0.1272 | −0.178
18 | O=C(N[C@@H](Cc1c[nH]c2ccccc12)C(=O)O)C1CCN(S(=O)(=O)c2cccs2)CC1 [drawing 414] | – | – | – | – | – | – | 0.08394 | 0.03833 | 0.03594 | −0.09429 | 0.01148 | −0.09282
19 | COC(=O)Cn1c(=O)c2c(nc3n2CC(C)CN3Cc2ccccc2)n(C)c1=O (stereo not drawn) [drawing 415] | – | – | – | – | – | – | 0.05467 | 0.04855 | −0.1372 | −0.2301 | 0.01742 | −0.09631
20 | CCOC(=O)c1cc(C(=O)OCC)c(SCc2ccccc2)nc1O [drawing 416] | – | – | – | – | – | – | −0.05564 | −0.06589 | 0.2144 | −0.09676 | −0.147 | −0.37
